Measurements as given in publication PMC8729767, “Specific Strains of Honeybee Gut Lactobacillus Stimulate Host Immune System to Protect against Pathogenic Hafnia alvei” (Microbiology Spectrum, 2022).
Where two headings read alike, the source gives them in different places. Peptide text beside a SMILES is read from it.

Tests used:
[1] = system: honeybees exposed to H. alvei; assay: H. alvei infection survival assay; type: in vivo, Apis mellifera; details: adult worker bees fed 450 μg/ml tetracycline in sucrose syrup, then orally exposed to H. alvei SMH01 for 24 h; N = 30 bees per group; Mantel-Cox test, P < 0.05
Method: Using in vivo virulence assays, we first explored whether H. alvei is pathogenic to adult honeybees. One H. alvei strain SMH01 was isolated from the worker bee gut. Then we investigated if the strain contributes to increased mortality of bees with normal or disturbed gut microbiota. Adult worker bees were collected from a brood frame in the hive and were treated with or without tetracycline. After introduction in the lab, groups of bees were fed filter-sterilized sucrose syrup (controls) or tetracycline suspended in the diet (Tet) for 5 days (Fig. 1A). Then we challenged bees with H. alvei SMH01. Bees were orally exposed to H. alvei in their food for 24 h. […] To confirm the pathogenicity of H. alvei to honeybees, we performed histology of honeybee guts exposed to H. alvei. […] Damaged tissue presented barely preserved mucosal architecture of the rectum in H. alvei-infected bees (Fig. 1C and D).
Approximately 200 adult worker bees were collected from brood frame from the hive kept at Miyun County, Beijing (March 2019). The bees were immobilized at 4°C and were divided into two cohorts (control and tetracycline treatment) distributed to cup cages as previously described ([11]). The cup cages were maintained in an incubator at 35°C, with humidity of 50%. Each cohort has five replicating cup cages containing ∼20 bees in each cup. […]

H. alvei = type: cell-based, Hafnia alvei
Method: To verify the inhibitory effect of AMPs secreted by honeybees on H. alvei, we performed an in vitro AMP resistance assay (Table S2 in the supplemental material). A. mellifera expresses two dominant apidaecin isoforms (Ia, Ib) at a ratio of approximately 1 : 20 ([31]). […] However, low concentration (8–16 μg/ml) of apidaecin-1a and 1b inhibited the growth of H. alvei, and the pathogen was slightly more resistant to apidaecin Ia than to Ib.
To test the activity of AMPs against H. alvei, growth inhibition assays in liquid media were performed using 50% diluted HIA media. AMPs synthesized by GL Biochem and Sangon Biotech were serially diluted in 96-well plates to obtain concentrations of 0.5 to 512 µg/ml. Overnight grown H. alvei cultures from HIA media were diluted to 1 × 10^6 CFU/ml in 50% Heart Infusion Broth. Optical density was recorded after 24 h of incubation at 35°C, 5% CO2.

[2] = H. alvei 1 × 10^6 CFU/ml in 50% Heart Infusion Broth, optical density after 24 h at 35°C, 5% CO2

CN(C)[C@@H]1C(O)=C(C(N)=O)C(=O)[C@@]2(O)C(O)=C3C(=O)c4c(O)cccc4[C@@](C)(O)[C@H]3C[C@@H]12 [Tetracycline, tetracycline]
survivorship of honeybees after exposure to H. alvei [1]: reduced survivorship

CC[C@H](C)[C@H](NC(=O)[C@H](CCCCN)NC(=O)[C@@H]1CCCN1C(=O)[C@H](CC(N)=O)NC(=O)[C@H](Cc1ccccc1)NC(=O)[C@@H]1CCCN1C(=O)CNC(=O)[C@H](CCC(N)=O)NC(=O)CNC(=O)[C@@H]1CCCN1C(=O)[C@H](Cc1ccccc1)NC(=O)[C@@H](NC(=O)[C@@H]1CCCN1C(=O)[C@H](Cc1ccccc1)NC(=O)[C@@H]1CCCN1C(=O)[C@H](CCCNC(=N)N)NC(=O)[C@H](CCCNC(=N)N)NC(=O)CNC(=O)[C@@H]1CCCN1C(=O)[C@H](CCC(N)=O)NC(=O)[C@@H]1CCCN1C(=O)[C@@H](NC(=O)[C@H](CC(N)=O)NC(=O)[C@@H]1CCCN1C(=O)[C@H](CC(C)C)NC(=O)[C@@H]1CCCN1C(=O)[C@@H](NC(=O)[C@@H](N)Cc1ccc(O)cc1)C(C)C)[C@@H](C)CC)[C@@H](C)O)C(=O)N[C@@H](CCCCN)C(=O)N[C@@H](Cc1c[nH]c2ccccc12)C(=O)N1CCC[C@H]1C(=O)N[C@@H](CCC(N)=O)C(=O)NCC(=O)N[C@@H](Cc1ccc(O)cc1)C(=O)O [abaecin] (H-YVPLPNIPQPGRRPFPTFPGQGPFNPKIKWPQGY-OH; N-terminus and C-terminus assumed)
MIC (H. alvei; 24 h): > 512 µg/mL

apidaecin-1a
low concentration that inhibited the growth of H. alvei (H. alvei; [2]): 8 to 16 µg/mL

apidaecin-1b
low concentration that inhibited the growth of H. alvei (H. alvei; [2]): 8 to 16 µg/mL | concentration with a profound inhibition on the growth of H. alvei (H. alvei; in vitro growth inhibition, 24 h, 35°C, 5% CO2): ≥ 4 µg/mL

hymenoptaecin
MIC (H. alvei; H. alvei 1 × 10^6 CFU/ml in 50% Heart Infusion Broth, AMPs serially diluted 0.5 to 512 µg/ml in 96-well plates, optical density after 24 h at 35°C, 5% CO2): > 512 µg/mL
